pIC50: −log10 of the molar value. A value given as a limit tells only on which side of the number the result lay.

Sequence of IGF-1R (P08069 31-1367): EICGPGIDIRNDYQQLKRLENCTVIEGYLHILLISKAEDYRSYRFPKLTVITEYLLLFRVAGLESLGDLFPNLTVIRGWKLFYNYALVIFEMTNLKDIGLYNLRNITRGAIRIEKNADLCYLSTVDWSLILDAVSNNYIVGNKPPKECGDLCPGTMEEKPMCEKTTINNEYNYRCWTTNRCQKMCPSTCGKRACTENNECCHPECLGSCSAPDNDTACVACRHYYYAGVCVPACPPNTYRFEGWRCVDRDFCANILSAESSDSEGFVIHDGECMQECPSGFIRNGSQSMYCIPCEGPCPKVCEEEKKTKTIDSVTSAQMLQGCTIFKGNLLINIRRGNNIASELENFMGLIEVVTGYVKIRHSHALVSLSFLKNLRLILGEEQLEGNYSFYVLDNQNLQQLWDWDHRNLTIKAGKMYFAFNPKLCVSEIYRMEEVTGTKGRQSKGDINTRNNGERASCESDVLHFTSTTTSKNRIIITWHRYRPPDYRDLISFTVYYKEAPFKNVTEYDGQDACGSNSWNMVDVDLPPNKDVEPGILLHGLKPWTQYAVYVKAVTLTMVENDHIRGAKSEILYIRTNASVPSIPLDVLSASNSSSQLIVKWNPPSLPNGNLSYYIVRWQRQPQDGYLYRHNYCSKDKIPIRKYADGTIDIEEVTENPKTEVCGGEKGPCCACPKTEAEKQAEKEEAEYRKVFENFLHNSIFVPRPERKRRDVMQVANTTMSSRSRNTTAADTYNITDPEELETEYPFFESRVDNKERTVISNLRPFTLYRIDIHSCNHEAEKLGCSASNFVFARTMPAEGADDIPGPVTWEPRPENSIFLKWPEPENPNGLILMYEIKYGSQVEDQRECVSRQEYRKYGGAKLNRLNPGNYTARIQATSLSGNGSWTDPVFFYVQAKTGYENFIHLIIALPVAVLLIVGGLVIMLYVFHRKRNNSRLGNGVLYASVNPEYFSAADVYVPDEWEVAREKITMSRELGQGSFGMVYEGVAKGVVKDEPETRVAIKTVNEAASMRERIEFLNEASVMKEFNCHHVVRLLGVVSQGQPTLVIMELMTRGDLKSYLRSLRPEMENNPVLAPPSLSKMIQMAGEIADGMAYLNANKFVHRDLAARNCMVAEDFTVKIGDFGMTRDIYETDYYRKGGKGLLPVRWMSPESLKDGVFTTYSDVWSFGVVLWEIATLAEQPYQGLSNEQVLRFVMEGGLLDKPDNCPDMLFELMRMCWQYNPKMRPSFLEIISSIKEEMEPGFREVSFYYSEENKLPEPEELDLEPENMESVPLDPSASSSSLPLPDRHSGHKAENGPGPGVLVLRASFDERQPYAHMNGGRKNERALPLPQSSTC

The assay addresses IGF-1R (Homo sapiens (Human), UniProt P08069). The experiment in a line: Example B-1: IGF-1R Assay (PC3 cells, IGF1 stimulation, AlphaLISA). Type of assay: cell-based. As to conditions: 200 ng/mL IGF1 stimulation, read-out: Biological Activity against IGF-1R IC50. Summed up:
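PC3 cells were serum-starved 2 h, treated with serially diluted compounds for 2 h, then stimulated with IGF1 (200 ng/mL final) for 30 min. Lysates were read by AlphaLISA; % inhibition was calculated relative to vehicle and EC80 controls, with IC50 values binned into ranges.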
On to `COc1cc(Nc2nccc(Nc3cnc4cc(F)c(F)cc4c3)n2)cnc1N1CCS(=O)(=O)CC1` [Compound 161, 4-(5-((4-((6,7-difluoroquinolin-3-yl)amino)pyrimidin-2-yl)amino)-3-methoxypyridin-2-yl)thiomorpholine 1,1-dioxide], for which the pIC50 is 5.70 to 6.30.

Turning to `COc1cc(Nc2nccc(Nc3cnc4ccc(C(F)F)cc4c3)n2)cnc1O[C@H]1C[C@@H](N(C)C)C1` [Compound 163, 4-[6-(difluoromethyl)-3-quinolylamino]-2-{5-methoxy-6-[(1s,3s)-3-(dimethylamino)cyclobutoxy]-3-pyridylamino}pyrimidine], the negative-log IC50 (pIC50) is no less than 6.30.

Regarding `COc1cc(Nc2nccc(Nc3cc4cccc(F)c4[nH]c3=O)n2)cnc1O[C@@H]1CCN(C)C1` [Compound 165, 3-(2-{6-[(R)-1-methyl-3-pyrrolidinyloxy]-5-methoxy-3-pyridylamino}-4-pyrimidinylamino)-8-fluoro-1,2-dihydro-2-quinolinone], the pIC50 was 5.70 to 6.30.

In the case of `COc1cc(Nc2nccc(Nc3cc4cccc(F)c4[nH]c3=O)n2)cnc1O[C@H]1CCN(C)C1` [Compound 166, 3-(2-{6-[(S)-1-methyl-3-pyrrolidinyloxy]-5-methoxy-3-pyridylamino}-4-pyrimidinylamino)-8-fluoro-1,2-dihydro-2-quinolinone], the pIC50 is 5.70 to 6.30.

Take `COc1cc(Nc2nccc(Nc3cc4cccc(F)c4[nH]c3=O)n2)cnc1OC1CC2(C1)CN(C)C2` [Compound 167, 8-fluoro-3-(2-{5-methoxy-6-(2-methyl-2-aza-6-spiro[3.3]heptyloxy)-3-pyridylamino}-4-pyrimidinylamino)-1,2-dihydro-2-quinolinone]: the pIC50 was no less than 6.30.

Turning to `COc1cc(Nc2nccc(Nc3ccc4ccc(Cl)nc4n3)n2)ccc1O[C@H]1C[C@@H](N(C)C)C1` [Compound 168, N4-(7-chloro-1,8-naphthyridin-2-yl)-N2-(4-((1s,3s)-3-(dimethylamino)cyclobutoxy)-3-methoxyphenyl)pyrimidine-2,4-diamine], the pIC50 is no less than 6.30.

Take `COc1cc(Nc2nccc(Nc3cc4ccccc4nc3C(N)=O)n2)cnc1O[C@H]1C[C@@H](N(C)C)C1` [Compound 172, 3-((2-((6-((1s,3s)-3-(dimethylamino)cyclobutoxy)-5-methoxypyridin-3-yl)amino)pyrimidin-4-yl)amino)quinoline-2-carboxamide]: the negative-log IC50 (pIC50) was no less than 6.30.

Regarding `COc1cc(Nc2ncc(F)c(Nc3cnc4cc(F)c(F)cc4c3)n2)ccc1O[C@H]1C[C@@H](N(C)C)C1` [Compound 173, N4-(6,7-difluoroquinolin-3-yl)-N2-(4-((1s,3s)-3-(dimethylamino)cyclobutoxy)-3-methoxyphenyl)-5-fluoropyrimidine-2,4-diamine], the pIC50 is no less than 6.30.

In the case of `COc1cc(Nc2nccc(Nc3cc4cccc(F)c4[nH]c3=O)n2)cnc1N1CCN(C)C(C(F)(F)F)C1` (stereo not drawn) [Compound 174, 8-fluoro-3-((2-((5-methoxy-6-(4-methyl-3-(trifluoromethyl)piperazin-1-yl)pyridin-3-yl)amino)pyrimidin-4-yl)amino)quinolin-2(1H)-one], the pIC50 was 5.70 to 6.30.

As for `COc1cc(Nc2nccc(Nc3cc4cccc(F)c4[nH]c3=O)n2)ccc1N1CCN(C)C(C)(C)C1` [Compound 175, 8-fluoro-3-((2-((3-methoxy-4-(3,3,4-trimethylpiperazin-1-yl)phenyl)amino)pyrimidin-4-yl)amino)quinolin-2(1H)-one], the pIC50 is no less than 6.30.

In the case of `COc1cc(Nc2nccc(Nc3cnc4cc(F)c(F)cc4c3)n2)cnc1N1CCNC(C(F)(F)F)C1` (stereo not drawn) [Compound 176, N4-(6,7-difluoroquinolin-3-yl)-N2-(5-methoxy-6-(3-(trifluoromethyl)piperazin-1-yl)pyridin-3-yl)pyrimidine-2,4-diamine], the pIC50 is no less than 6.30.

For `COc1cc(Nc2nccc(Nc3cnc4c(c3)OCC(CN(C)C)O4)n2)ccc1O[C@H]1C[C@@H](N(C)C)C1` (stereo partly drawn) [Compound 179, 4-{3-[(dimethylamino)methyl]-2,3-dihydro-1,4-dioxa-5-aza-7-naphthylamino}-2-{3-methoxy-4-[(1s,3s)-3-(dimethylamino)cyclobutoxy]phenylamino}pyrimidine], the pIC50 was no less than 6.30.

For the molecule `COc1cc(Nc2nccc(Nc3cnc(O[C@H]4CCCC[C@H]4O)c(F)c3)n2)ccc1O[C@H]1C[C@@H](N(C)C)C1` [Compound 180, (1R,2S)-2-[3-fluoro-5-(2-{3-methoxy-4-[(1s,3R)-3-(dimethylamino)cyclobutoxy]phenylamino}-4-pyrimidinylamino)-2-pyridyloxy]cyclohexanol], the pIC50 is no less than 6.30.

`COc1cc(Nc2nccc(Nc3cnc4c(c3)O[C@@H]3CCCC[C@@H]3O4)n2)ccc1O[C@H]1C[C@@H](N(C)C)C1` [Compound 190, 4-[(8aS,10aR)-5,6,7,8,8a, 10a-hexahydro-9,10-dioxa-1-aza-3-anthrylamino]-2-{3-methoxy-4-[(1s,3S)-3-(dimethylamino)cyclobutoxy]phenylamino}pyrimidine]: the negative-log IC50 (pIC50) is no less than 6.30.

Consider `COc1cc(Nc2nccc(Nc3cnc4c(c3)O[C@H]3CCCC[C@@H]3O4)n2)ccc1O[C@H]1C[C@@H](N(C)C)C1` [Compound 191, 4-[(8aS,10aS)-5,6,7,8,8a,10a-hexahydro-9,10-dioxa-1-aza-3-anthrylamino]-2-{3-methoxy-4-[(1s,3R)-3-(dimethylamino)cyclobutoxy]phenylamino}pyrimidine], for which the pIC50 was no less than 6.30.

Consider `COc1cc(Nc2nccc(Nc3cnc4c(c3)O[C@H]3CCC[C@@H]3O4)n2)ccc1O[C@H]1C[C@@H](N(C)C)C1` [Compound 192, 4-{(3S,7S)-2,8-dioxa-10-azatricyclo[7.4.0.03,7]trideca-1(13),9,11-trien-12-ylamino}-2-{3-methoxy-4-[(1s,3R)-3-(dimethylamino)cyclobutoxy]phenylamino}pyrimidine], for which the pIC50 was no less than 6.30.

On to `COc1cc(Nc2ncc(F)c(Nc3cc4ccccc4nc3C(N)=O)n2)ccc1O[C@H]1C[C@@H](N(C)C)C1` [Compound 193, 3-(5-fluoro-2-{3-methoxy-4-[(1s,3s)-3-(dimethylamino)cyclobutoxy]phenylamino}-4-pyrimidinylamino)-2-quinolinecarboxamide], for which the pIC50 was no less than 6.30.

Take `COc1cc(Nc2nccc(Nc3cnc4c(c3)CCC4)n2)ccc1OCCCN1CCCCC1` [Compound 194, 4-(4-aza-6-indanylamino)-2-[3-methoxy-4-(3-piperidinopropoxy)phenylamino] pyrimidine]: the pIC50 is no less than 6.30.

`COc1cc(Nc2nccc(Nc3cc4cccc(F)c4[nH]c3=O)n2)cnc1N1CCN(C)CC1` [Compound 197, 8-fluoro-3-{2-[5-methoxy-6-(4-methyl-1-piperazinyl)-3-pyridylamino]-4-pyrimidinylamino}-1,2-dihydro-2-quinolinone]: the pIC50 was no less than 6.30.

`COc1cc(Nc2nccc(Nc3cc(Cl)cnc3C(N)=O)n2)ccc1O[C@H]1C[C@@H](N(C)C)C1` [Compound 198, 5-chloro-3-(2-{3-methoxy-4-[(1s,3s)-3-(dimethylamino)cyclobutoxy]phenylamino}-4-pyrimidinylamino)-2-pyridinecarboxamide]: the pIC50 is no less than 6.30.

Regarding `COc1cc(Nc2nccc(Nc3cnc4ccc(Br)cc4c3)n2)ccc1O[C@H]1C[C@H](N(C)C)C1` [Compound 199, 4-(6-bromo-3-quinolylamino)-2-{3-methoxy-4-[(1r,3r)-3-(dimethylamino)cyclobutoxy]phenylamino}pyrimidine], the pIC50 was no less than 6.30.

Take `COc1cc(Nc2nccc(Nc3cnc4c(c3)OCCO4)n2)ccc1OCCCN1CCCCC1` [Compound 201, 4-(2,3-dihydro-1,4-dioxa-5-aza-7-naphthylamino)-2-[3-methoxy-4-(3-piperidinopropoxy)phenylamino]pyrimidine]: the pIC50 is no less than 6.30.

In the case of `COc1cc(Nc2nccc(Nc3cnc4c(c3)CCCCC4)n2)ccc1O[C@H]1C[C@@H](N(C)C)C1` [Compound 202, 4-{8-azabicyclo[5.4.0]undeca-1(7),8,10-trien-10-ylamino}-2-{3-methoxy-4-[(1s,3s)-3-(dimethylamino)cyclobutoxy]phenylamino}pyrimidine], the pIC50 was no less than 6.30.

Turning to `COc1cc(Nc2nccc(Nc3cnc4[nH]cc(Br)c4c3)n2)ccc1O[C@H]1C[C@@H](N(C)C)C1` [Compound 203, 4-(3-bromo-1H-1,7-diazainden-5-ylamino)-2-{3-methoxy-4-[(1s,3s)-3-(dimethylamino)cyclobutoxy]phenylamino}pyrimidine], the pIC50 was no less than 6.30.

For the molecule `CN(C)CC1COc2cc(Nc3nccc(Nc4cc5cccc(F)c5[nH]c4=O)n3)ccc2O1` (stereo not drawn) [Compound 205, 3-(2-{2-[(dimethylamino)methyl]-2,3-dihydro-1,4-benzodioxin-6-ylamino}-4-pyrimidinylamino)-8-fluoro-1,2-dihydro-2-quinolinone], the pIC50 was no less than 6.30.

In the case of `O=S1(=O)CCN(CCCOc2ccc(Nc3nccc(Nc4cnc5ccc(Br)cc5c4)n3)cc2)CC1` [Compound 206, 4-(3-{p-[4-(6-bromo-3-quinolylamino)-2-pyrimidinylamino]phenoxy}propyl)-1λ^6,4-thiazinane-1,1-dione], the pIC50 is no less than 6.30.

`CN(C)CCOc1cc(Nc2nccc(Nc3cnc4ccccc4c3)n2)ccc1N1CCOCC1` [Compound 207, 2-{3-[2-(dimethylamino)ethoxy]-4-morpholinophenylamino}-4-(3-quinolylamino)pyrimidine]: the pIC50 is no less than 6.30.

As for `COc1cc(Nc2nccc(Nc3cnc4c(c3)C3CCC4CC3)n2)ccc1OCCCN1CCCCC1` [Compound 209], the pIC50 is no less than 6.30.

For `COc1cc(Nc2ncc(F)c(Nc3cnc4ccc(Cl)cc4c3)n2)ccc1O[C@H]1C[C@@H](N(C)C)C1` [Compound 210, N4-(6-chloroquinolin-3-yl)-N2-(4-((1s,3s)-3-(dimethylamino)cyclobutoxy)-3-methoxyphenyl)-5-fluoropyrimidine-2,4-diamine], the pIC50 is no less than 6.30.

Take `COc1cc(N2CCN(C3COC3)CC2)ncc1Nc1nccc(Nc2cc3cccc(F)c3[nH]c2=O)n1` [Compound 225, 8-fluoro-3-(2-{4-methoxy-6-[4-(3-oxetanyl)-1-piperazinyl]-3-pyridylamino}-4-pyrimidinylamino)-1,2-dihydro-2-quinolinone]: the pIC50 was no less than 6.30.

Source of the values: US20250171431A1, “HETEROCYCLIC INHIBITORS OF IGF-1R FOR TREATMENT OF DISEASE” (HORIZON THERAPEUTICS IRELAND DAC, priority 2023, published 2025).
